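Following 48 hours of exposure in 96-well plates, responses at five concentrations were used to interpolate endpoints linearly. TGI denotes the concentration required for complete inhibition of growth.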 Where only a bound is given, the exact number is not on record here.

Some test systems named below: SN12K1 renal; RXF-631 renal; P388/ADR leukemia; P388 leukemia.
What all share (experiment): NCI tumour cell line growth inhibition, 48 h

Regarding `O=P1(N(CCCl)CCCl)NCCCO1` (stereo not given), the TGI in the experiment with SN12K1 renal was more than 250 µM; in the experiment on RXF-631 renal it was more than 250 µM; with P388/ADR leukemia it was more than 229 µM; in the experiment on P388 leukemia it was more than 250 µM.

With `CCOC(=O)/C(C1=N[C@H](C(=O)OCC)CS1)=C(\O)c1ccccc1`, the TGI in the experiment with RXF-631 renal was more than 100 µM.
